This passage reports pharmacokinetic characteristic results from patent US20220233472A1, “VETERINARY BROMHEXINE HYDROCHLORIDE SOLUBLE POWDER, PREPARATION METHOD AND USE THEREOF” (Qingdao Agricultural University, priority 2021, published 2022).

SMILES strings stand for the structures. Where a name gives a salt, the structure may show the parent alone.

A short description of the series: Pharmacokinetic tests of bromhexine hydrochloride soluble powder in chickens. The series is classed as in vivo. Particulars: oral, soluble powder at 50, 150 and 250 mg/kg·bw. Here is the method:
Pharmacokinetic tests of bromhexine hydrochloride soluble powder in chickens were carried out based on three administration dosages of 50 mg/kg·bw, 150 mg/kg·bw and 250 mg/kg·bw.

In the case of `CN(Cc1cc(Br)cc(Br)c1N)C1CCCCC1` [bromhexine, Bromhexine hydrochloride], the pharmacokinetic characteristic entry is recorded as “linear pharmacokinetic characteristic”.
